Data on eight compounds can be found in patent US20100048597A1 (Novartis AG, priority 2006, published 2010).

For orientation: IC50 means the concentration that inhibits the measured activity by half.

In assay [1] the target is T1, CDK1/cyclinB (Homo sapiens, UniProt P06493).
T1 construct: purchased Millipore
The assay can be described thus: CDK1/cyclinB kinase assay, IMAP fluorescence polarization. The assay is classed as biochemical. The note with it: read-out: CDK1 IC50. A digest of the protocol:
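IMAP fluorescence polarization assay on recombinant purified enzyme, compounds at final 1% DMSO. Reaction run 2 h at room temperature, stopped, held 1 h more before reading polarization.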
(In general: Fluorescence polarisation rises when a labelled molecule tumbles more slowly, as on binding a larger partner.)

The target in assay [2] is CDK4 (Homo sapiens, UniProt P11802). Briefly: CDK4 kinase assay (Table F). The assay is classed as biochemical.
Assay [3] concerns the target CDK5 (Homo sapiens, UniProt Q00535). Briefly: CDK5 kinase assay (Table F). The assay is classed as biochemical.
Assay [4] addresses T2, CDK7/cyclinH/MAT1 (Homo sapiens, UniProt P50613).
T2 construct: purchased Millipore
Briefly: CDK7/cyclinH/Mat1 kinase assay, IMAP fluorescence polarization. The assay is classed as biochemical. The method, then:
Kinase assays were performed on recombinant purified enzymes using the non-radioactive IMAP fluorescence polarization assay format.
Compound stocks were prepared and diluted in DMSO and were added to kinase reactions at a 1/100 dilution for a final concentration of 1% DMSO. The components were added together to final concentrations listed in the tables below and incubated for two hours at room temperature.
The reactions were stopped by addition of stop solution.
CDK9/CDK1/CDK7: final stop concentration is 1× Developer buffer (85% A/15% B), IMAP beads 1/400
The samples were allowed to incubate for one more hour at room temperature and then the fluorescence polarization was measured. The plate normalized millipolarization (mP) values were plotted against the log of compound concentration for each compound and IC50 values were calculated using the spotfire IC50 calculator and confirmed by visual analysis.

The subject of assay [5] is RNA Polymerase II CTD Serine2 Phosphorylation. The assay can be described thus: H5 (Ser2) Ab High Content Screen: RNA Polymerase II CTD Serine2 Phosphorylation Assay in Hep3B cells. To be noted: Homo sapiens, 2 hours with compound, H5 antibody staining. The assay is classed as cell-based. Here is the method:
H5 (also referred as Ser2) Ab High Content Screen: RNA Polymerase II CTD Serine2 Phosphorylation Assay
1. Cells are plated into 384 well plates: 30 μl of Hep3B cells (4,000 cells/30 μl) in DMEM with 3% FBS are plated into wells of a tissue culture treated clear bottomed 384 well plate. Cells are allowed to adhere during an overnight incubation.
2. Cells are treated with compounds for two hours: 10 μl of DMEM with 3% FBS is added to each well with a final concentration of DMSO equal to 1%. Cells are incubated with compounds for 2 hours.
3. Cells are fixed and permeabilized. Cells are washed with 30 mM HEPES pH=7.3 then fixed in 4% paraformaldehyde in 30 mM HEPES pH=7.3 for one hour at room temperature. The fix is removed by washing the cells with Tris buffered saline (TBS) and the cells are permeabilized by incubation in TBS with 0.5% triton X-100 for 30 minutes at room temperature. Triton is removed by washing the cells with TBS.
4. […] Incubate primary H5 Ab (1/250 ) overnight at 4 degrees in TBS with 1% BSA and 0.1% Tween-20. The next day wash cells with TBS. […] Wash cells with PBS.
5. Measure staining using the In-cell Analyzer system from GE Healthcare.

The target in assay [6] is T3, CDK9/cyclinT1 (Homo sapiens, UniProt P50750).
T3 construct: purchased Millipore
The assay can be described thus: CDK9/cyclinT1 kinase assay, IMAP fluorescence polarization. The assay is classed as biochemical. A digest of the protocol:
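Recombinant purified enzyme complexes assayed by IMAP fluorescence polarization with 1% final DMSO, 2 h at room temperature; stopped with 1× Developer buffer (85% A/15% B) plus IMAP beads 1/400, then 1 h further at room temperature. IC50 from normalized mP versus log compound concentration.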

The target of assay [7] is T4, CDK2/cyclinA (Homo sapiens, UniProt P24941).
T4 construct: purchased Millipore
Briefly: CDK2/cyclinA kinase assay, IMAP fluorescence polarization. The assay is classed as biochemical. The gist of the method:
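Recombinant purified enzyme reactions run 2 hours at room temperature with 1% DMSO final. Stopped with 1× Developer buffer (100% A) and IMAP beads 1/400, then 1 hour more before fluorescence polarization read. IC50 from mP values versus log concentration.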

Some results are limits rather than exact numbers.

T1 sequence (P06493 whole entry): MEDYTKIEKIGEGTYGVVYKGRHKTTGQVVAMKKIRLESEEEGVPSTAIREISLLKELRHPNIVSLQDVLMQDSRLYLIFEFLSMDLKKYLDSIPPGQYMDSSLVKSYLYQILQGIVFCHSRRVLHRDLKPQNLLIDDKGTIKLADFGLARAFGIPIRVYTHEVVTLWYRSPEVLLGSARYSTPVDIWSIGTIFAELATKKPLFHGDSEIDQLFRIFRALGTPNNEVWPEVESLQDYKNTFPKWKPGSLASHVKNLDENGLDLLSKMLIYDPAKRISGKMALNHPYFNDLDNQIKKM
T1 sequence (P14635 whole entry partner): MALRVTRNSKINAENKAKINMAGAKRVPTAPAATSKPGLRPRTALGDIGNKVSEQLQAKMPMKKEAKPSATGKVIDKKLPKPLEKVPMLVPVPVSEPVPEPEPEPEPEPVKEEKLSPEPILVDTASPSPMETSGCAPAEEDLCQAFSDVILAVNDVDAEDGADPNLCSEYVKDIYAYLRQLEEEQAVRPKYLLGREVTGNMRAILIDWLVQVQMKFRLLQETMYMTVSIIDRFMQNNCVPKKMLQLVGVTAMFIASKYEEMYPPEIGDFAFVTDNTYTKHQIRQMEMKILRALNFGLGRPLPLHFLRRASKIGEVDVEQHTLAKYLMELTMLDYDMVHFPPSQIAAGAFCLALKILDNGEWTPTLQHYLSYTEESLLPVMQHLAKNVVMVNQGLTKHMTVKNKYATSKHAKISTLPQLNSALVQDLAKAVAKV
T3 sequence (P50750 whole entry): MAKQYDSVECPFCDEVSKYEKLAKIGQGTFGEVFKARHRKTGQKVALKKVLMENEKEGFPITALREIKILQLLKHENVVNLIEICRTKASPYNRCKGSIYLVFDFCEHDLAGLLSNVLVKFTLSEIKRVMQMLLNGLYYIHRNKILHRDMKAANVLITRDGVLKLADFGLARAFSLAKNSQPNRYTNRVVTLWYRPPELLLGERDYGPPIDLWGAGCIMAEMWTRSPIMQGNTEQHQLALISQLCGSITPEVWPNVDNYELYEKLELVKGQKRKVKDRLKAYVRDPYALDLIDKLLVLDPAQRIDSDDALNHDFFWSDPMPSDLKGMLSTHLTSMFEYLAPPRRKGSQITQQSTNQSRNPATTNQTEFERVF
T3 sequence (O60563 whole entry partner): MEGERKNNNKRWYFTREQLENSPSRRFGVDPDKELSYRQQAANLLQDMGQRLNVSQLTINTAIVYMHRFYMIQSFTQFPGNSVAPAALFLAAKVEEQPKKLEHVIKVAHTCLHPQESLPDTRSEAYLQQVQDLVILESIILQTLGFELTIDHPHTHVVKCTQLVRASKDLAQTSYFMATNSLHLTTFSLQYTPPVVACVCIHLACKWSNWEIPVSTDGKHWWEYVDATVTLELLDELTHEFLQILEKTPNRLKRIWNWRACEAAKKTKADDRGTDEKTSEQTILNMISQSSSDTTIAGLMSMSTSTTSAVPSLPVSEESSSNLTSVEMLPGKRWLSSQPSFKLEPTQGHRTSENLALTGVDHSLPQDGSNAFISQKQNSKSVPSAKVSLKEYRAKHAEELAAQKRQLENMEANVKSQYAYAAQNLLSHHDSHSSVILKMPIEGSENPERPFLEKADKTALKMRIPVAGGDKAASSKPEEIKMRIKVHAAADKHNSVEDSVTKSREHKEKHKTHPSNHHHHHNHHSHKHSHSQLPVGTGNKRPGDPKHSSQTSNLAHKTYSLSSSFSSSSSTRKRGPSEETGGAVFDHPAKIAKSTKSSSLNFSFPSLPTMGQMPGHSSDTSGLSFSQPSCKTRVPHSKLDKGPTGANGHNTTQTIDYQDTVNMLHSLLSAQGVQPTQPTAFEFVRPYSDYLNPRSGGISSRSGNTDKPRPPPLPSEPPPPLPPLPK
CDK4, sequence (P11802 whole entry, species assumed): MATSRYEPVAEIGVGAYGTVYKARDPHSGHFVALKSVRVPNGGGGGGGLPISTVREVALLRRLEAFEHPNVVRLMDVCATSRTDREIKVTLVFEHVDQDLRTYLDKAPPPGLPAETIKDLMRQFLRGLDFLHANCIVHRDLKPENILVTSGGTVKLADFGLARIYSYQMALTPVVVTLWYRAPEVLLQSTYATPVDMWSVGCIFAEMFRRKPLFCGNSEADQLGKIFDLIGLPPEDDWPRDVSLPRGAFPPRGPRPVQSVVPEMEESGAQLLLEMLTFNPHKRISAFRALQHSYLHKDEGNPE
CDK4, sequence (P24385 whole entry partner, species assumed): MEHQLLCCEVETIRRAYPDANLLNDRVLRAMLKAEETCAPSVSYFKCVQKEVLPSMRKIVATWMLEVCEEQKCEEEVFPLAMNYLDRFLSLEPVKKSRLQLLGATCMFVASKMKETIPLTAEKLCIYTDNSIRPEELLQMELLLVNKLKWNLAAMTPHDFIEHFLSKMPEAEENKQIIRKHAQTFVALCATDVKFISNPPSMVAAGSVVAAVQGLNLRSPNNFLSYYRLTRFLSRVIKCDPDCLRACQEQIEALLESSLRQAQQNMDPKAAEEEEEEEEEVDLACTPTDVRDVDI
T2 sequence (P50613 whole entry): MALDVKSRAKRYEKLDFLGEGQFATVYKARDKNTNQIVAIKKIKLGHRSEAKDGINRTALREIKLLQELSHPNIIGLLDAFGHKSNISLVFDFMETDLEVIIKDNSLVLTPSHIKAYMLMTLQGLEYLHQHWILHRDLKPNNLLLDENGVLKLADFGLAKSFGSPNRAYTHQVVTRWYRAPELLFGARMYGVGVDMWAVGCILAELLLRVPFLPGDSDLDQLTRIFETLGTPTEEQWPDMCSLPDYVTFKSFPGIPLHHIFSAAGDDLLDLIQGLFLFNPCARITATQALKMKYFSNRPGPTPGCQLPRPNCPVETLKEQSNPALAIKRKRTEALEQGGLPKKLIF
T2 sequence (P51946 whole entry partner): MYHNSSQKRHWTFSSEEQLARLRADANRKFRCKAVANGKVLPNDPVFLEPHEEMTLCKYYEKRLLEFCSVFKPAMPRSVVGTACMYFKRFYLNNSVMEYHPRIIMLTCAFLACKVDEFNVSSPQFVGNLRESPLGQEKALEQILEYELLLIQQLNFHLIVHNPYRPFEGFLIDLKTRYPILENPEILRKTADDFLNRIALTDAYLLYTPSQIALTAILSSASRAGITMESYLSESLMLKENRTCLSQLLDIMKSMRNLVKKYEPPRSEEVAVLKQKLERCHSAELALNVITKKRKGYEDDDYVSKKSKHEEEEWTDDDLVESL
T2 sequence (P51948 whole entry partner): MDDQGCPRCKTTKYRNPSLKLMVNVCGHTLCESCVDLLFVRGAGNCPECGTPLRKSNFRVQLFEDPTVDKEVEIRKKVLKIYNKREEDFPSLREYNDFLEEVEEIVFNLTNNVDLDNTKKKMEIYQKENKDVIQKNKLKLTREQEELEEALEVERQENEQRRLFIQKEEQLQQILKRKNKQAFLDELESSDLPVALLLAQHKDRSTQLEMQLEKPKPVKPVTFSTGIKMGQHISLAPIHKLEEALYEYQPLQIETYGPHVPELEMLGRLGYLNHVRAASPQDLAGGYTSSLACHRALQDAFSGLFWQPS
CDK5, sequence (Q00535 whole entry, species assumed): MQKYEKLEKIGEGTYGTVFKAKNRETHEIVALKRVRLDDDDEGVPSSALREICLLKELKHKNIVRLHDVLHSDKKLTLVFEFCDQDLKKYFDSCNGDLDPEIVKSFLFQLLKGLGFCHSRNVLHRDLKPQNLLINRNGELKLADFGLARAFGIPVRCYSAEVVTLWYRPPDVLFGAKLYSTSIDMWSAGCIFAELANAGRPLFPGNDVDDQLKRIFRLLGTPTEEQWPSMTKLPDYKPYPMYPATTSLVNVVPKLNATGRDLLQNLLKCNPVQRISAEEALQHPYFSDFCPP
CDK5, sequence (Q15078 whole entry partner, species assumed): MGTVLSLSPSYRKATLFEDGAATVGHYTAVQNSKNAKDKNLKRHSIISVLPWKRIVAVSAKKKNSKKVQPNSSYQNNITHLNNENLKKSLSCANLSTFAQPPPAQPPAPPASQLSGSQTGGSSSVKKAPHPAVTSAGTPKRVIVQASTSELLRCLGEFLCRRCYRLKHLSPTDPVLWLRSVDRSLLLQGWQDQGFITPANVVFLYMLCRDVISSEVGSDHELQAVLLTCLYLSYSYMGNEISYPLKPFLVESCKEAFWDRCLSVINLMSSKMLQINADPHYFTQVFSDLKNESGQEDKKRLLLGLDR

Turning to `CC(=O)NCCCNc1nccc(-c2ccnc(Nc3cccc([N+](=O)[O-])c3)n2)c1C` [Compound 25, N-(3-{3-Methyl-4-[2-(3-nitro-phenylamino)-pyrimidin-4-yl]-pyridin-2-ylamino}-propyl)-acetamide], the half-inhibitory concentration (IC50) in assay [1] was < 5 µM; in assay [2], 5 to 15 µM; in assay [3], < 5 µM; in assay [4], < 5 µM; in assay [5] it was < 5 µM; in assay [6], < 5 µM. The 50% inhibitory concentration (IC50) in assay [7] is < 5 µM.

As for `CC(=O)NCCCNc1cc(-c2nc(Nc3cccc(Cl)c3)ncc2C)ccn1` [Compound 32, N-(3-{4-[2-(3-Chloro-phenylamino)-5-methyl-pyrimidin-4-yl]-pyridin-2-ylamino}-propyl)-acetamide], the IC50 in assay [1] was < 5 µM; in assay [2], 15 to 50 µM; in assay [3], < 5 µM; in assay [4], < 5 µM; in assay [5], < 5 µM; in assay [6] it was < 5 µM. Further, the concentration for half-maximal inhibition (IC50) in assay [7] was < 5 µM.

`COc1cnccc1-c1ccnc(Nc2cccc(Cl)c2)n1` [Compound 45, (3-Chloro-phenyl)-[4-(3-methoxy-pyridin-4-yl)-pyrimidin-2-yl]-amine]: the 50% inhibitory concentration (IC50) is < 5 µM in assay [1]; 5 to 15 µM in assay [2]; < 5 µM in assay [3]; > 50 µM in assay [4]; < 5 µM in assay [5]; < 5 µM in assay [6]. The half-maximal inhibitory concentration (IC50) in assay [7] was < 5 µM.

As for `COc1cnccc1-c1ccnc(Nc2cccc(S(C)(=O)=O)c2)n1` [Compound 46, (3-Methanesulfonyl-phenyl)-[4-(3-methoxy-pyridin-4-yl)-pyrimidin-2-yl]-amine], the IC50 in assay [1] is < 5 µM; in assay [2] it was 5 to 15 µM; in assay [3], < 5 µM; in assay [4], < 5 µM; in assay [5] it was < 5 µM; in assay [6], < 5 µM. Also, the half-maximal inhibitory concentration (IC50) in assay [7] is < 5 µM.

As to `NCCNc1ncccc1-c1ccnc(Nc2cccc(Cl)c2)n1` [Compound 52, N-{3-[2-(3-Chloro-phenylamino)-pyrimidin-4-yl]-pyridin-2-yl}-ethane-1,2-diamine], the IC50 in assay [1], in assay [2], in assay [3], in assay [4], in assay [5] and in assay [6] was < 5 µM in each case. Further, the half-inhibitory concentration (IC50) in assay [7] was < 5 µM.

With `NCCCNc1ncccc1-c1ccnc(Nc2cccc(Cl)c2)n1` [Compound 55, N-{3-[2-(3-Chloro-phenylamino)-pyrimidin-4-yl]-pyridin-2-yl}-propane-1,3-diamine], the IC50 in assay [1], in assay [2], in assay [3], in assay [4], in assay [5] and in assay [6] was < 5 µM in each case. In addition, the IC50 in assay [7] was < 5 µM.

In the case of `N#Cc1cccc(Nc2nccc(-c3cccnc3NCCCN)n2)c1` [Compound 60, 3-{4-[2-(3-Amino-propylamino)-pyridin-3-yl]-pyrimidin-2-ylamino}-benzonitrile], the IC50 in assay [1], in assay [2], in assay [3], in assay [4], in assay [5] and in assay [6] was < 5 µM in each case. For the same compound, the IC50 in assay [7] was < 5 µM.

Turning to `CC(C)(CN)CNc1ncccc1-c1ccnc(Nc2cccc(Cl)c2)n1` [Compound 61, N-{3-[2-(3-Chloro-phenylamino)-pyrimidin-4-yl]-pyridin-2-yl}-2,2-dimethyl-propane-1,3-diamine], the IC50 in assay [1] is < 5 µM; in assay [2], < 5 µM; in assay [3] it was 15 to 50 µM; in assay [4] it was < 5 µM; in assay [5], < 5 µM; in assay [6], < 5 µM. The IC50 in assay [7] was < 5 µM.
